These results are taken from patent EP0344564A1, “Utilisation of special amines or hindering nitrosamine production” (Eisenbrand, Gerhard, Prof. Dr., priority 1988, dated 1989).

This series is described as follows: Nitrosamine formation in aqueous amine / sodium nitrite mixture, comparison with THEDA (Beispiel 4). The following applies: 20 mM Amin, 20 mM Natriumnitrit, 4 Stunden, 37 °C, pH 4. It counts as physicochemical.

`CC(O)CN(CCN(CC(C)O)CC(C)O)CC(C)O` (stereo not shown) [THEDA, N,N,N′,N′-Tetrakis(2-hydroxypropyl)ethylene-diamin]: the “% gebildetes Nitrosamin bezogen auf eingesetztes Amin” value is on record as 1,0%.
